According to paper PMC6160541 (Frontiers in Chemistry, 2018):

Columns and labels:
HeLa = assay: MTT cytotoxicity assay, HeLa; assay type: cell-based, human; settings: 48 h
Experimental: (§1) We evaluated the cytotoxicity of 1c-6c, 1d-7d and of the positive control 1a-5a against a panel of human cancer cells using MTT (3-(4,5-dimethylthiazol-2-yl)-2,5-diphenyltetrazolium bromide) assay. The IC50 values were calculated based on three parallel experiments.
(§2) Cisplatin and oxaliplatin were purchased from Yurui Chemical Co. Ltd. (Shanghai, China). All of the other chemicals were obtained from commercial suppliers, such as Alfa […]
(§3) IonSpec QFT mass spectrometer with ESI ionization. 3-(4,5-dimethylthiazol-2-yl) […]
(§4) Phosphate-buffered saline (PBS) contains 137 mM
(§5) NaCl, 2.7 mM KCl, 10 mM Na2HPO4 and 2 mM KH2PO4. Fetal bovine serum (FBS), 0.25% trypsin/EDTA solution, and penicillin-streptomycin solution were purchased from […]
(§6) Invitrogen (Grand Island, NY, USA). […]
(§7) HeLa (cervical carcinoma cell line), MCF-7 (breast gland adenocarcinoma), LNCaP and PC3 (prostatic cancer), HepG-2 (hepatocellular carcinoma), A549 and A549R (lung carcinoma) were used for the MTT […]
(§8) In Vitro Cellular Cytotoxicity Assays
(§9) Cells seeded in 96-well plates were incubated in a 5% CO2 atmosphere in 100 µL of complete medium at 37 ℃ for 24 h. Then, 100 µL of freshly prepared culture medium containing drugs at different concentrations was added and incubated for another 48 h.
(§10) MTT (5 mg/mL, 20 µL) was added and incubated for 3 h. Finally, the medium was removed, and DMSO (150 µL) was added. The absorbance was measured at 570 nm using a Bio-Rad 680 microplate reader. The IC50 values were calculated using GraphPad […]
(§11) Prism software. […]

MCF-7 = assay: MTT cytotoxicity assay, MCF-7; assay type: cell-based, human; settings: 48 h
Experimental: as §1, §2, §3, §4, §5, §6, §7, §8, §9, §10, §11

LNCaP = assay: MTT cytotoxicity assay, LNCaP; assay type: cell-based, human; settings: 48 h
Experimental: as §1, §2, §3, §4, §5, §6, §7, §8, §9, §10, §11

PC3 = assay: MTT cytotoxicity assay, PC3; assay type: cell-based, human; settings: 48 h
Experimental: as §1, §2, §3, §4, §5, §6, §7, §8, §9, §10, §11

HepG-2 = assay: MTT cytotoxicity assay, HepG-2; assay type: cell-based, human; settings: 48 h
Experimental: as §1, §2, §3, §4, §5, §6, §7, §8, §9, §10, §11

A549 = assay: MTT cytotoxicity assay, A549; assay type: cell-based, human; settings: 48 h
Experimental: as §1, §2, §3, §4, §5, §6, §7, §8, §9, §10, §11

A549R = assay: MTT cytotoxicity assay, A549R (cisplatin-resistant); assay type: cell-based, human; settings: for IC50: MTT, 48 h
Experimental: as §1, §2, §3, §4, §5, §6, §7, §8, §9, §10, §11

human cancer cells = assay: MTT cytotoxicity, summary over panel of human cancer cells; assay type: cell-based; settings: range over A549R, LnCaP, PC3
Experimental: as §1
Scheme 9. Synthetic route of 38b. Conditions and reagents: (a) Ac2O and NaOAc; (b) TMSN3, BF3OEt2, and DCM; (c) MeONa and MeOH rt overnight; (d) BnBr, NaH, and DMF overnight; (e) […]
Preparation of 46b and 47b
Compounds 46b (38%) and 47b (45%) were prepared according to the procedure described for compounds 20b and 21b, respectively.
Compound 48b (45%) was prepared according to the procedure described for compound […]
In Vitro Cellular Cytotoxicity Assays […]
MTT (5 mg/mL, 20 µL) was added and incubated for 3 h. […] The absorbance was measured at 570 nm using a Bio-Rad 680 microplate reader. The IC50 values were calculated using GraphPad Prism software. […]
For cytotoxicity assays using the GLUT1 inhibitor 4,6-O-ethylidene-α-D-glucose (EDG), phloretin and the OCT2 inhibitor Ctd., a similar procedure as described above was followed except that MCF-7 cells (3500 cells/well) were seeded on a 96 well plate in 100 µL of RPMI and incubated for 24 h at 37 °C. […] The cytotoxicity profiles of the compounds were evaluated using the MTT assay. […]

MCF-7 cells = assay: MTT cytotoxicity with GLUT1 inhibitors (EDG, phloretin) and OCT2 inhibitor (Ctd.) in MCF-7 cells; assay type: cell-based, human; settings: MCF-7
Experimental: For cytotoxicity assays, the GLUT1 inhibitors EDG (1) and phloretin (2), the OCT2 inhibitor Ctd. (cimetidine) (3), and the mixture of EDG and Ctd.(4) were selected to undergo a similar procedure as antitumor activity in vitro. MCF-7 cells were seeded on a 96 well plate in 100 μL of RPMI and were incubated for 24 h at 37°C, and EDG-containing RPMI medium, phloretin-containing RPMI medium and Ctd.-containing RPMI medium were used to render the serial dilution of the concentrated solutions of the platinum compounds, and 100 μL/well was added (resulting in final inhibitor concentrations of 75 mM, 100 μM and 3 mM). The cytotoxicity profiles of the compounds were evaluated using MTT assay. […]
as §8, §9
MTT (5 mg/mL, 20 µL) was added and incubated for 3 h. Finally, the medium was removed, and DMSO (150 µL) was added. The absorbance was measured at 570 nm using a Bio-Rad 680 microplate reader. The IC50 values were calculated using GraphPad Prism software. Technical repetitions and independent experiments were based on three […]
For cytotoxicity assays using the GLUT1 inhibitor 4,6-O-ethylidene-α-D-glucose (EDG), phloretin and the OCT2 inhibitor Ctd., a similar procedure as described above was followed except that MCF-7 cells (3500 cells/well) were seeded on a 96 well plate in 100 µL of RPMI and incubated for 24 h at 37 °C. EDG, phloretin and Ctd. containing RPMI medium were used for serial dilution of the concentrated solutions of the platinum compounds, and 100 µL/well were added (resulting in final inhibitor concentrations of 75 mM, 100 µM and 3 mM, respectively). The cytotoxicity profiles of the compounds were evaluated using the MTT assay. […]

Structure (SMILES) | IC50 (HeLa) [µM] | IC50 (MCF-7) [µM] | IC50 (LNCaP) [µM] | IC50 (PC3) [µM] | IC50 (HepG-2) [µM] | IC50 (A549) [µM] | IC50 (A549R) [µM] | IC50 (human cancer cells) [µM] | effect of EDG and phloretin on IC50 values (MCF-7 cells) | RF: Resistance factor = IC50(A549R)/IC50(A549) (A549R)
N.N.[Cl][Pt][Cl] [1a, cisplatin, reference compound] | 0.8 ± 0.93 | 2.28 ± 0.56 | 23.8 ± 0.89 | 22.9 ± 1.45 | 3.94 ± 0.39 | 10.8 ± 1.98 | 35.8 ± 1.69 | 16.8 to 39.7 | not greatly different | –
CC(=O)OC[C@H]1O[C@@H](O[C@H]2[C@H](OC(C)=O)[C@@H](OC(C)=O)[C@H](NC(=O)CCC(=O)[O][Pt-2]([NH3+])([NH3+])([OH])([Cl])[Cl])O[C@@H]2COC(C)=O)[C@H](OC(C)=O)[C@@H](OC(C)=O)[C@H]1OC(C)=O [1c] | 18.2 ± 1.01 | 24.2 ± 1.44 | > 100 | > 100 | 11.6 ± 1.58 | 36.4 ± 1.39 | 4.26 ± 1.9 | – | – | 0.12
N.N.[Cl-].[Cl-].[OH-].[OH-].[Pt+4] [2a, reference compound] | 11.4 ± 1.56 | 27 ± 0.34 | 50.8 ± 0.79 | 61.4 ± 0.67 | 50 ± 1.79 | > 100 | 13.4 ± 2.57 | – | – | –
CC(=O)OC[C@H]1O[C@@H](O[C@H]2[C@H](OC(C)=O)[C@@H](OC(C)=O)[C@H](NC(=O)CCC(=O)[O][Pt-2]34([OH])([NH2+][C@@H]5CCCC[C@H]5[NH2+]3)[O]C(=O)C(=O)[O]4)O[C@@H]2COC(C)=O)[C@H](OC(C)=O)[C@@H](OC(C)=O)[C@H]1OC(C)=O [2c] | 4.05 ± 0.87 | 8.29 ± 1.87 | 4.7 ± 0.89 | > 100 | 59.3 ± 1.49 | 14.5 ± 1.47 | 8.37 ± 1.9 | – | – | 0.58
O=C1[O][Pt]2([NH][C@@H]3CCCC[C@H]3[NH]2)[O]C1=O [3a, oxaliplatin, reference compound] | 3.96 ± 0.75 | 5.22 ± 2.78 | 16.8 ± 0.34 | 39.7 ± 0.76 | 6.64 ± 1.79 | 10.1 ± 1.2 | 39.7 ± 0.69 | 16.8 to 39.7 | not greatly different | 3.94
CC(=O)OC[C@H]1O[C@@H](NC(=O)CCC(=O)[O][Pt-2]([NH3+])([NH3+])([OH])([Cl])[Cl])[C@H](OC(C)=O)[C@@H](OC(C)=O)[C@@H]1O[C@H]1O[C@H](COC(C)=O)[C@@H](OC(C)=O)[C@H](OC(C)=O)[C@H]1OC(C)=O [3c] | 0.91 ± 0.54 | 27.2 ± 1.56 | > 100 | 1.13 ± 0.45 | 3.27 ± 1.67 | 3.38 ± 1.49 | 14.6 ± 1.78 | – | – | 4.33
N.N.O=C(CCC(=O)[O][Pt]([OH])([Cl])[Cl])NCCO[C@H]1O[C@H](CO)[C@@H](O)[C@H](O)[C@@H]1O [3d] | 3.01 ± 0.67 | 45.1 ± 0.77 | > 100 | > 100 | 13.2 ± 1.38 | 1.9 ± 2.78 | > 100 | – | – | –
NC1CCCCC1N.O=C1[O][Pt]([OH])([OH])[O]C1=O [4a, reference compound] | 15.8 ± 0.34 | > 100 | 23 ± 0.89 | > 100 | > 100 | > 100 | 29.7 ± 0.64 | – | – | –
CC(=O)OC[C@H]1O[C@@H](NC(=O)CCC(=O)[O][Pt-2]23([OH])([NH2+][C@@H]4CCCC[C@H]4[NH2+]2)[O]C(=O)C(=O)[O]3)[C@H](OC(C)=O)[C@@H](OC(C)=O)[C@@H]1O[C@H]1O[C@H](COC(C)=O)[C@@H](OC(C)=O)[C@H](OC(C)=O)[C@H]1OC(C)=O [4c] | > 100 | 7.21 ± 0.78 | > 100 | 22.9 ± 0.78 | 10.7 ± 1.49 | 14.3 ± 1.48 | 25.2 ± 1.79 | – | – | –
CC(=O)OC[C@H]1O[C@@H](NC(=O)CCC(=O)[O][Pt-2]23([OH])([NH2+][C@@H]4CCCC[C@H]4[NH2+]2)[O]C(=O)C(=O)[O]3)[C@H](OC(C)=O)[C@@H](OC(C)=O)[C@H]1OC(C)=O [5c] | 32.2 ± 0.34 | 17.89 ± 0.12 | 22.1 ± 1.45 | 7.45 ± 0.56 | > 100 | 17.5 ± 0.89 | 74.1 ± 1.67 | – | – | 4.24
O=C(CCC(=O)[O][Pt-2]12([OH])([NH2+][C@@H]3CCCC[C@H]3[NH2+]1)[O]C(=O)C(=O)[O]2)NCCCO[C@@H]1O[C@H](CO)[C@H](O)[C@H](O)[C@H]1O [5d] | 0.58 ± 0.78 | 0.35 | 12 ± 0.79 | 6.27 ± 1.45 | 1.77 ± 1.39 | 2.29 ± 1.78 | 5.67 ± 1.69 | – | – | –
CC(=O)OC[C@H]1O[C@H](NC(=O)CCC(=O)[O][Pt-2]23([OH])([NH2+][C@@H]4CCCC[C@H]4[NH2+]2)[O]C(=O)C(=O)[O]3)[C@@H](OC(C)=O)[C@@H](OC(C)=O)[C@@H]1OC(C)=O [6c] | 16.8 ± 0.45 | 20.8 ± 0.45 | 20.1 ± 1.78 | 7.06 ± 0.56 | 50.9 ± 1.46 | 23.8 ± 0.78 | > 100 | – | – | –
